Results published in patent US6500817B1, “Thiazolyl urea derivatives and their utilization as antiviral agents” (Bayer Aktiengesellschaft, priority 1999, dated 2002).

Compound	melting point [°C]
CCCN(C(=O)Nc1ccc(OCC)cc1)c1nc(C)c(S(=O)(=O)NC)s1	154
CCOc1ccc(NC(=O)N(C)c2nc(C)c(S(N)(=O)=O)s2)cc1	196
CNS(=O)(=O)c1sc(N(CCOC)C(=O)Nc2ccc(N3CCOCC3)cc2)nc1C	188
CNS(=O)(=O)c1sc(N(Cc2ccncc2)C(=O)Nc2ccc(N3CCCC3)cc2)nc1C	208
Cc1nc(N(C)C(=O)Nc2ccc(N3CCCC3)cc2)sc1S(=O)(=O)NCC1CC1	205
CCOc1ccc(NC(=O)N(C)c2nc(CC)c(S(=O)(=O)NC)s2)cc1	210
CCOc1ccc(NC(=O)N(CC2CCCO2)c2nc(C)c(S(=O)(=O)NC)s2)cc1 (centres unmarked)	150
CCOc1ccc(NC(=O)N(Cc2ccccn2)c2nc(C)c(S(=O)(=O)NC)s2)cc1	194
CCOc1ccc(NC(=O)N(CCCNC(=O)OC(C)(C)C)c2nc(C)c(S(=O)(=O)NC)s2)cc1	146
Cc1nc(N(CCN(C)C)C(=O)Nc2ccc(-c3ccccc3)cc2)sc1S(=O)(=O)N(C)C(=O)Nc1ccc(-c2ccccc2)cc1	190
CCOc1ccc(NC(=O)N(CCCN2CCCC2=O)c2nc(C)c(S(=O)(=O)NC)s2)cc1	188
CCCN(C(=O)Nc1ccc(-c2ccccc2)cc1)c1nc(C)c(S(N)(=O)=O)s1	144
CCOc1ccc(NC(=O)N(CCN(C)C)c2nc(C)c(S(N)(=O)=O)s2)cc1	162
CCOc1ccc(NC(=O)N(C)c2ncc(S(=O)(=O)N(C)C)s2)cc1	194
CCOc1ccc(NC(=O)N(Cc2cccnc2)c2nc(C)c(S(N)(=O)=O)s2)cc1	193
CNS(=O)(=O)c1sc(N(C)C(=O)Nc2ccc(N3CC=CC3)cc2)nc1C	208 to 209
Cc1nc(N(C)C(=O)Nc2ccc(N3CCC3)cc2)sc1S(=O)(=O)N(C)C	193 to 195
Cc1nc(N(C)C(=O)Nc2ccc(-c3ccccc3)cc2)sc1S(=O)(=O)NCC1CC1	176

Compound	melting point [°C]
CNS(=O)(=O)c1sc(N(CCCN(C)C)C(=O)Nc2ccc(-c3ccccc3)cc2)nc1C	196
CNS(=O)(=O)c1sc(N(Cn2ccnc2)C(=O)Nc2ccc(-c3ccccc3)cc2)nc1C	205
CCCOc1ccc(NC(=O)N(C)C2=CC(C)=C(S(=O)(=O)NCCOC)C2)cc1	97
CCCOc1ccc(NC(=O)N(CCN(C)C)c2nc(C)c(S(=O)(=O)NC)s2)cc1	165
CNS(=O)(=O)c1sc(N(CCN(C)C)C(=O)Nc2ccc(N3CCOCC3)cc2)nc1C	196
CCOc1ccc(NC(=O)N(CCCN(C)C)c2nc(C)c(S(=O)(=O)NC)s2)cc1	185
CC(=O)Nc1cccc(Oc2ccc(NC(=O)N(C)c3nc(Cl)c(S(=O)(=O)N(C)C)s3)cc2)c1	219
Cc1nc(N(C)C(=O)Nc2ccc(N3CCSCC3)cc2)sc1S(=O)(=O)N(C)C	196
C=C(Nc1ccc(N2CCOCC2)cc1)Nc1nc(C)c(S(=O)(=O)N(C)C)s1	188
COCCN(C)S(=O)(=O)c1sc(N(C)C(=O)Nc2ccc(N3CCOCC3)cc2)nc1C	156
Cc1nc(N(C)C(=O)Nc2ccc(N3CCOCC3)cc2)sc1S(=O)(=O)N(C)CCn1ccnn1	172
CCCOc1ccc(NC(=O)N(C)c2nc(C)c(S(=O)(=O)N(C)C)s2)cc1	147
CCOc1ccc(NC(=O)N(C)c2nc(C)c(S(=O)(=O)NCc3ccc4c(c3)OCO4)s2)cc1	178
CCOc1ccc(NC(=O)N(CCCCNC(=O)OC(C)(C)C)c2nc(C)c(S(=O)(=O)N(C)C)s2)cc1	152
CN(C(=O)Nc1ccc(N2CCOCC2)c(F)c1)c1nc(Cl)c(S(=O)(=O)N(C)C)s1	196
CCOc1ccc(NC(=O)N(Cc2ccccc2)c2nc(C)c(S(=O)(=O)NC3CC3)s2)cc1	178
CCOc1ccc(NC(=O)Nc2nc(C)c(S(=O)(=O)NCCOC)s2)cc1	137
